Source: patent US7192617B2, “Whitening agent, skin preparation for external use and cosmetic” (priority 2002, dated 2007)

Experiment: Test for measuring DPPH radical scavenging activity
Conditions: 30 minutes of reaction at 30° C., absorbance at 517 nm; in terms of the evaporation residue
Experimental: 800 μl of a 500 μM DPPH solution was added to the test tube, stirred, and reacted at 30° C. Exactly after 30 minutes of reaction, the absorbance of the sample at 517 nm was measured, using distilled water as a standard. From the measured absorbances, the DPPH radical scavenging ratio was calculated, and the 50% radical scavenging activity (IC50) was obtained. The same procedure was performed with α-tocopherol, which is a known antioxidative component, for measuring the DPPH radical scavenging activity. […] From the measured values, the DPPH radical scavenging ratios were calculated.

50% DPPH radical scavenging activity (IC50): 0.13 mg/g
Structure (SMILES): Cc1c(C)c2c(c(C)c1O)CC[C@@](C)(CCC[C@H](C)CCC[C@H](C)CCCC(C)C)O2 [α-tocopherol]
